What all share (experiment): NCI tumour cell line growth inhibition, 48 h
Experiment [1] relates to SK-MEL-28 melanoma.
Experiment [2] relates to SNB-75 CNS.
Experiment [3] deals with CCRF-CEM leukemia.
Experiment [4] relates to IGROV1 ovarian.
Experiment [5] deals with MDA-MB-231 breast.
Experiment [6] relates to SF-295 CNS.
For experiment [7], the system named is MCF7 breast.
Experiment [8] relates to U251 CNS.
The test system of experiment [9] is UO-31 renal.
The subject of experiment [10] is OVCAR-4 ovarian.

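Each compound was tested at five concentrations against cells in 96-well plates for 48 hours. Here, GI50 denotes the concentration required for 50% inhibition of growth. TGI: concentration producing complete growth inhibition.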

With `COc1cc(-c2nc(Nc3nc4ccccc4[nH]3)nc(N)c2C#N)cc(OC)c1OC`, the GI50 in experiment [1] is 19.1 µM; in experiment [2], 0.308 µM; in experiment [3], 6.17 µM; in experiment [4] it was 6.2 µM; in experiment [5], 13.1 µM; in [6], 0.191 µM. In addition, the GI50 is 0.503 µM in experiment [7], 10.8 µM in experiment [8], 85.7 µM in experiment [9] and 12.9 µM in experiment [10]. Further, the TGI is above 100 µM in experiment [1]; 49.9 µM in [2]; above 100 µM in [3]; above 54 µM in experiment [4]; 92.4 µM in experiment [5]; above 33.8 µM in [7]. For the same molecule, the TGI in [8] was 72.4 µM; in [9] it was above 100 µM; in [10], 34.7 µM.

As for `COC(=O)Nc1nc2ccc(Oc3ccc(NC(=O)Nc4cccc(C(=O)O)c4)cc3)cc2[nH]1`, the GI50 in experiment [1] is 10 µM; in experiment [2], 9.98 µM; in experiment [3] it was 7.02 µM; in experiment [4] it was 12.7 µM; in [5] it was 11.5 µM; in [6], 5.61 µM. For the same molecule, the GI50 in experiment [7] is 4.73 µM; in [8], 7.35 µM; in [9], 15.7 µM; in experiment [10], 9.77 µM. For the same molecule, the TGI was above 25 µM in [1]; above 25 µM in [2]; above 25 µM in experiment [3]; above 25 µM in experiment [4]; above 25 µM in experiment [5]; above 21.7 µM in experiment [6]. Also, the TGI in experiment [7] is 24.3 µM; in experiment [8], above 25 µM; in experiment [9] it was above 25 µM; in experiment [10], above 25 µM.

`Cn1cc(-c2nc(-c3c[nH]c4ncccc34)cs2)c2cc(F)ccc21`: the GI50 in experiment [1] was 4.75 µM; in experiment [2], 2.78 µM; in [3] it was 3.04 µM; in [4], 2.51 µM; in [5], 2.32 µM; in experiment [6] it was 2.18 µM. Further, the GI50 is 1.13 µM in experiment [7], 2.43 µM in experiment [8], 2.06 µM in experiment [9] and 0.0689 µM in experiment [10]. In addition, the TGI was 16.9 µM in experiment [1]; 10.1 µM in experiment [2]; above 52.6 µM in [3]; 13.1 µM in experiment [4]; 8.36 µM in [5]; 6.93 µM in experiment [6]. Also, the TGI in [7] turned out to be 6.53 µM; in experiment [8] it was 8.08 µM; in [9], 8.12 µM; in experiment [10], 22.2 µM.

Turning to `COc1ccc2c(c1)C(=O)/C(=C/c1cccc(OCC(=O)Nc3nc4c(s3)CCCC4)c1)O2`, the GI50 in experiment [1] is 1.58 µM; in experiment [2], 1.75 µM; in [3], 0.863 µM; in [4] it was below 0.0153 µM; in experiment [5], 1.18 µM; in experiment [6], 3.7 µM. For the same molecule, the GI50 was 2.83 µM in experiment [7], 0.772 µM in experiment [8], 0.0544 µM in experiment [9] and 2.57 µM in experiment [10]. Also, the TGI in [1] is 3.22 µM; in [2], 12 µM; in experiment [3] it was above 100 µM; in experiment [4], 0.054 µM; in experiment [5], 5.38 µM; in experiment [6], 15.8 µM. In addition, the TGI was found to be 11.8 µM in experiment [7], 4.97 µM in [8], 0.101 µM in [9] and 8.52 µM in [10].

In the case of `COc1cc(O)c2c(O)c3c(c4c2c1[C@]1(C4)C(C)=CCCC1(C)C)[C@H](O)[C@@]1(O)CC(=O)C(C(N)=O)=C(O)[C@@]1(O)C3=O`, the TGI in experiment [1] is 2.15 µM; in experiment [2] it was 0.794 µM; in experiment [3], 0.185 µM; in experiment [4] it was 1.94 µM; in experiment [5], 1.17 µM; in experiment [6] it was 1.07 µM. Also, the TGI in experiment [7] stood at 1.23 µM; in experiment [8], 1.17 µM; in experiment [9], 1.27 µM; in experiment [10], 1.39 µM.

In the case of `Cn1cncc1[C@@](N)(c1ccc(Cl)cc1)c1ccc2c(c1)c(-c1cccc(Cl)c1)cc(=O)n2C`, the GI50 in experiment [1] is 2.8 µM; in experiment [2], 4.68 µM; in experiment [3], 2.54 µM; in [4] it was 2.33 µM; in [5], 2.52 µM; in experiment [6], 0.534 µM. Moreover, the GI50 in experiment [7] was 1.55 µM; in experiment [8], 1.4 µM; in [9], 1.97 µM; in experiment [10], 2.14 µM. Further, the TGI in experiment [1] was 14.7 µM; in experiment [2] it was 18.9 µM; in experiment [3], 18.8 µM; in experiment [4], 13 µM; in experiment [5] it was 14.9 µM; in [6], 6.35 µM. In addition, the TGI in experiment [7] turned out to be 13.5 µM; in experiment [8], 7.49 µM; in experiment [9], 6.97 µM; in [10], 14.7 µM.

`COc1ccc2nc(-c3cc(-c4cc(OC)c(OC)c(OC)c4)n[nH]3)[nH]c2c1`: the GI50 was 1.9 µM in experiment [1]; 2.23 µM in experiment [2]; 1.29 µM in experiment [3]; 1.9 µM in experiment [4]; 2.87 µM in experiment [5]; 1.62 µM in [6]. The GI50 is 2.15 µM in [7], 2.9 µM in [8], 1.57 µM in [9] and 1.24 µM in experiment [10]. Besides, the TGI in experiment [1] was determined as 5.26 µM; in [2], 6.34 µM; in experiment [3], 4.12 µM; in experiment [4] it was 7.11 µM; in experiment [5], 12.9 µM; in experiment [6], 5.24 µM. Further, the TGI was 6.66 µM in experiment [7], 11.5 µM in experiment [8], 4.11 µM in [9] and 4.81 µM in experiment [10].

These data come from PubChem BioAssay (NCI).
